Laboratory results reported in publication PMC7529935 (European journal of medicinal chemistry, 2020).

Legend:
[1] = system: HIV/EBOV pseudovirions (EBOV GP); format: cell-based, Zaire Ebolavirus
[2] = system: HIV/MARV pseudovirions (MARV GP); assay: microbe, parasite or virus in culture; format: cell-based, Marburgvirus; settings: Human immunodeficiency virus 1, A549, 48 h, read-out: IC50 for MARV

Row | SMILES | antiviral activity (anti-filovirus, words) [1] | cytotoxicity (A549 cells) | antiviral activity against EBOV [1] | IC50 [2]
1 | Cc1c(Cc2ccc(OC(F)(F)F)cc2)c(=O)oc2cc(OCC(O)CNc3nccs3)ccc12 (centres unmarked) [Compound 56, 7-(2-hydroxy-3-(thiazol-2-ylamino)propoxy)-4-methyl-3-(4-(trifluoromethoxy)benzyl)-2H-chromen-2-one] | strong activity | low cytotoxicity |  | 
2 | NC(=O)C1CCN(CC(O)COc2ccc3c(C4CC4)cc(=O)oc3c2)CC1 (centres unmarked) [Compound 55, 1-(3-((4-cyclopropyl-2-oxo-2H-chromen-7-yl)oxy)-2-hydroxypropyl)piperidine-4-carboxamide] | lost most of the antiviral activity |  |  | 
3 | Cc1c(Cc2ccc(OC(F)(F)F)cc2)c(=O)oc2cc(OCC(O)CN3CCC(C(N)=O)CC3)ccc12 (centres unmarked) [Compound 32, 1-(2-hydroxy-3-((4-methyl-2-oxo-3-(4-(trifluoromethoxy)benzyl)-2H-chromen-7-yl)oxy)propyl)piperidine-4-carboxamide] |  | low cytotoxicity | strongest antiviral activity against EBOV | 1.5 µM
4 | Cc1cc(=O)oc2cc(OCC(O)CN3CCC(C(N)=O)CC3)ccc12 (centres unmarked) [Compound 19, 1-(2-hydroxy-3-((4-methyl-2-oxo-2H-chromen-7-yl)oxy)propyl)piperidine-4-carboxamide] | lost most of the activity |  |  | 
5 | Cc1c(Cc2ccccc2)c(=O)oc2cc(OCC(O)CNCCc3ccncc3)ccc12 (centres unmarked) [Compound 13, 3-benzyl-7-(2-hydroxy-3-((2-(pyridin-4-yl)ethyl)amino)propoxy)-4-methyl-2H-chromen-2-one] |  |  | best inhibitory activity on EBOV entry | 
